Test results: publication PMC10879502, “Linking ATP and allosteric sites to achieve superadditive binding with bivalent EGFR kinase inhibitors” (Communications Chemistry, 2024)
One block for each compound: values may come before it.

How the values were obtained:
[1] = target: T1, WT EGFR kinase domain (Homo sapiens, UniProt P00533); assay: HTRF KinEASE-TK kinase activity assay; type: biochemical; settings: enzyme 10 nM, ATP 100 µM; read-out: Biochemical EGFR IC50, WT
T1 construct: The EGFR kinase domain (residues 696–1022) was cloned into pTriEx; 6xHis (N, cleaved yes); GST (N, cleaved yes); made in house; host or cells: SF9 insect cells, baculovirus

[2] = target: T2, FLT3-autoinhibited (Homo sapiens, UniProt P36888); assay: KINOMEscan; type: binding; settings: 1 μM
T2 construct: purchased Eurofins DiscoverX Corporation
T2 sequence (P36888 564-993 limits assumed): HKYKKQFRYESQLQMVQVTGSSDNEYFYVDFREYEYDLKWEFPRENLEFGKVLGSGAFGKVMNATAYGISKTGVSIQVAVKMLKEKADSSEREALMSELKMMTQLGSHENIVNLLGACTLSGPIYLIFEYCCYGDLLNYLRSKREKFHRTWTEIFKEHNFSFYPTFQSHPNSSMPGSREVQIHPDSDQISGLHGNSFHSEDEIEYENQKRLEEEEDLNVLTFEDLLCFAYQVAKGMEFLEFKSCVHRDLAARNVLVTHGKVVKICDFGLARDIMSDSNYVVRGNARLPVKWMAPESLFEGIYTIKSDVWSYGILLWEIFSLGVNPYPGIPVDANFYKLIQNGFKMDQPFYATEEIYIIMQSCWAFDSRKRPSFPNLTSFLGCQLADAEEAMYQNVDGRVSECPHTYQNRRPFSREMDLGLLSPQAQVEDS

[3] = target: T3, IRAK4 (Homo sapiens, UniProt Q9NWZ3); assay: KINOMEscan; type: binding; settings: 1 μM
T3 construct: purchased Eurofins DiscoverX (KINOMEscan)

[4] = target: T4, MEK2 (Homo sapiens, UniProt P36507); assay: KINOMEscan; type: binding; settings: 1 μM
T4 construct: purchased Eurofins DiscoverX Corporation
T4 sequence (P36507 whole entry): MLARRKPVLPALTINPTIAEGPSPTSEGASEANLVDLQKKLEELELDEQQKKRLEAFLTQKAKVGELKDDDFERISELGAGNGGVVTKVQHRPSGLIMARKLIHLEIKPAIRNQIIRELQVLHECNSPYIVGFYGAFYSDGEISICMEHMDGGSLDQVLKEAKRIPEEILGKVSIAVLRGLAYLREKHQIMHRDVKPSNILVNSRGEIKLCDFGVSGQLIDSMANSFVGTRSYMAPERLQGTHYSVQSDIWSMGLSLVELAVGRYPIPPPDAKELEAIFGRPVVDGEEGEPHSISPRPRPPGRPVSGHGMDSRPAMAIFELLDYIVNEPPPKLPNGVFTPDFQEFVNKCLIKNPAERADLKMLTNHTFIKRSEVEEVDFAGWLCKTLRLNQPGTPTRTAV

[5] = target: T5, CAMK1 (Homo sapiens, UniProt Q14012); assay: KINOMEscan; type: binding; settings: 1 μM
T5 construct: purchased Eurofins DiscoverX Corporation (KINOMEscan)

[6] = target: T6, HIPK2 (Homo sapiens, UniProt Q9H2X6); assay: KINOMEscan; type: binding; settings: 1 μM
T6 construct: purchased Eurofins DiscoverX Corporation

[7] = target: EGFR(G719S) (Homo sapiens, UniProt P00533, G719S); assay: KINOMEscan; type: binding; settings: 1 μM
[8] = target: AXL (Homo sapiens, UniProt P30530); assay: KINOMEscan; type: binding; settings: 1 μM
Sequence of AXL (P30530 26-894): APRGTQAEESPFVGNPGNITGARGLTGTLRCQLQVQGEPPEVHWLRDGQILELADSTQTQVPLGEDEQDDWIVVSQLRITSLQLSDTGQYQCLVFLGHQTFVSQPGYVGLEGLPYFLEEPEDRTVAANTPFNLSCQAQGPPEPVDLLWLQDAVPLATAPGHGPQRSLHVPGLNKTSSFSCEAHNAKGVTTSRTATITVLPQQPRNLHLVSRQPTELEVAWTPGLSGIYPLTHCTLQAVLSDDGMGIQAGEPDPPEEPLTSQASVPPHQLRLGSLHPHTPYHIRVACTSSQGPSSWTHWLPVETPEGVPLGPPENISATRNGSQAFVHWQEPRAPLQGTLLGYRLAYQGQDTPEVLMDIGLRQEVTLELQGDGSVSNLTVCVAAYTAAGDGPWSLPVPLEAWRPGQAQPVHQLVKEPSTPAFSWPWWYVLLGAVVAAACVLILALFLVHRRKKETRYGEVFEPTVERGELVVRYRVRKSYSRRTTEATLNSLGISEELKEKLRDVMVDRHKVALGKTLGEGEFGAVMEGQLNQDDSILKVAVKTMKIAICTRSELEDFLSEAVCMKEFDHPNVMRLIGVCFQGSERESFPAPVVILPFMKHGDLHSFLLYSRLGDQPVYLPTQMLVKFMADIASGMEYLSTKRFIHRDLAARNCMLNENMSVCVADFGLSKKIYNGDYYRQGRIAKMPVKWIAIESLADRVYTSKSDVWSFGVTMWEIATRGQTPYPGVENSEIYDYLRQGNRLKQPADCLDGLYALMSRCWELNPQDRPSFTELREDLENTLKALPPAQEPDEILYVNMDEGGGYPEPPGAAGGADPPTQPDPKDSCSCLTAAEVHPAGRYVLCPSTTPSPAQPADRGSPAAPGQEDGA

[9] = target: T7, CAMK2G (Homo sapiens, UniProt Q13555); assay: KINOMEscan; type: binding; settings: 1 μM
T7 construct: purchased Eurofins DiscoverX Corporation (KINOMEscan)

[10] = target: T8, TAOK2 (Homo sapiens, UniProt Q9UL54); assay: KINOMEscan; type: binding; settings: 1 μM
T8 construct: purchased Eurofins DiscoverX Corporation

[11] = target: STK35 (Homo sapiens, UniProt Q8TDR2); assay: KINOMEscan; type: binding; settings: 1 μM
Sequence of STK35 (Q8TDR2 whole entry): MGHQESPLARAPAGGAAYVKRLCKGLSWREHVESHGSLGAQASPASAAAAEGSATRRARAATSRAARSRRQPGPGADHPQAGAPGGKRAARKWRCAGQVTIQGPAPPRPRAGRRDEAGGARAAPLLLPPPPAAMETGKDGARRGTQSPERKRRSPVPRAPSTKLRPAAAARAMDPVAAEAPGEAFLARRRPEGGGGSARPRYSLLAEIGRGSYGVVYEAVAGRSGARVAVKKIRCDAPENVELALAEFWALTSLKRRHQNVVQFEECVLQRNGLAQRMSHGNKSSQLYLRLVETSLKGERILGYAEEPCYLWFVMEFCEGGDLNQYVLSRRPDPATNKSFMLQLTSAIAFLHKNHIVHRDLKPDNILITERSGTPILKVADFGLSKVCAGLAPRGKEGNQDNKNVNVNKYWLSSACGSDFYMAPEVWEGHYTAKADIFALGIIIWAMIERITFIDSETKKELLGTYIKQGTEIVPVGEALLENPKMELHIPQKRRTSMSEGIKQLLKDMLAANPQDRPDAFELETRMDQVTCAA

[12] = target: T9, JAK1(JH1domain-catalytic) (Homo sapiens, UniProt P23458); assay: KINOMEscan; type: binding; settings: 1 μM
T9 construct: JAK1(JH1domain-catalytic); purchased Eurofins DiscoverX (KINOMEscan)

[13] = target: RIPK5 (Homo sapiens, UniProt Q6XUX3); assay: KINOMEscan; type: binding; settings: 1 μM
Sequence of RIPK5 (Q6XUX3 whole entry): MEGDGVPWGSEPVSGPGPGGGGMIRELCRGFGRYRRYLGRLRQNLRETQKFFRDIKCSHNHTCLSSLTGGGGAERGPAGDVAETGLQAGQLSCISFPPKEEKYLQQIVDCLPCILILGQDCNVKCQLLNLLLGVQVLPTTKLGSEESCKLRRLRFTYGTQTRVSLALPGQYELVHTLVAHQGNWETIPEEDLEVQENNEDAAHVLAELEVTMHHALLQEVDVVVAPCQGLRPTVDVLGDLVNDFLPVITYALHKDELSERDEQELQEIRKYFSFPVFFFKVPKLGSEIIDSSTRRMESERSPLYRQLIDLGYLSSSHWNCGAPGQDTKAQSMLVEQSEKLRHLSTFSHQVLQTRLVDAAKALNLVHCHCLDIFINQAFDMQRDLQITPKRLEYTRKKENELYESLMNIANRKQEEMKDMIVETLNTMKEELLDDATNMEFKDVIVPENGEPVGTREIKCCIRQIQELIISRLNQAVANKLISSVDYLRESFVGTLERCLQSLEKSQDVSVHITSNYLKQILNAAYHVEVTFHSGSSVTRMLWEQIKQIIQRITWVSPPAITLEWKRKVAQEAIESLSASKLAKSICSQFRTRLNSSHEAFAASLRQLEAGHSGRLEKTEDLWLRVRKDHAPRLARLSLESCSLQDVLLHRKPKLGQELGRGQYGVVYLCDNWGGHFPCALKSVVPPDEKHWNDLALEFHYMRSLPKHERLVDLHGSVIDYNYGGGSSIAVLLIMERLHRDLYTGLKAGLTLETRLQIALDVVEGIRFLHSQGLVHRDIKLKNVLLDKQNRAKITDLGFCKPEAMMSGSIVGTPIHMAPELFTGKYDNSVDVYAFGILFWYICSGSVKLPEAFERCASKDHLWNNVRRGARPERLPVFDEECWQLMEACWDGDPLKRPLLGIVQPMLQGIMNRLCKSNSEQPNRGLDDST

[14] = target: T10, TSSK1B (Homo sapiens, UniProt Q9BXA7); assay: KINOMEscan; type: binding; settings: 1 μM
T10 construct: purchased Eurofins DiscoverX Corporation

[15] = target: VRK2 (Homo sapiens, UniProt Q86Y07); assay: KINOMEscan; type: binding; settings: 1 μM
[16] = target: PIK3CA(C420R) (Homo sapiens, UniProt P42336, C420R); assay: KINOMEscan; type: binding; settings: 1 μM
[17] = target: YSK4 (Homo sapiens, UniProt Q56UN5); assay: KINOMEscan; type: binding; settings: 1 μM
[18] = target: T11, AAK1 (Homo sapiens, UniProt Q2M2I8); assay: KINOMEscan; type: binding; settings: 1 μM
T11 construct: purchased Eurofins DiscoverX Corporation
T11 sequence (Q2M2I8 whole entry): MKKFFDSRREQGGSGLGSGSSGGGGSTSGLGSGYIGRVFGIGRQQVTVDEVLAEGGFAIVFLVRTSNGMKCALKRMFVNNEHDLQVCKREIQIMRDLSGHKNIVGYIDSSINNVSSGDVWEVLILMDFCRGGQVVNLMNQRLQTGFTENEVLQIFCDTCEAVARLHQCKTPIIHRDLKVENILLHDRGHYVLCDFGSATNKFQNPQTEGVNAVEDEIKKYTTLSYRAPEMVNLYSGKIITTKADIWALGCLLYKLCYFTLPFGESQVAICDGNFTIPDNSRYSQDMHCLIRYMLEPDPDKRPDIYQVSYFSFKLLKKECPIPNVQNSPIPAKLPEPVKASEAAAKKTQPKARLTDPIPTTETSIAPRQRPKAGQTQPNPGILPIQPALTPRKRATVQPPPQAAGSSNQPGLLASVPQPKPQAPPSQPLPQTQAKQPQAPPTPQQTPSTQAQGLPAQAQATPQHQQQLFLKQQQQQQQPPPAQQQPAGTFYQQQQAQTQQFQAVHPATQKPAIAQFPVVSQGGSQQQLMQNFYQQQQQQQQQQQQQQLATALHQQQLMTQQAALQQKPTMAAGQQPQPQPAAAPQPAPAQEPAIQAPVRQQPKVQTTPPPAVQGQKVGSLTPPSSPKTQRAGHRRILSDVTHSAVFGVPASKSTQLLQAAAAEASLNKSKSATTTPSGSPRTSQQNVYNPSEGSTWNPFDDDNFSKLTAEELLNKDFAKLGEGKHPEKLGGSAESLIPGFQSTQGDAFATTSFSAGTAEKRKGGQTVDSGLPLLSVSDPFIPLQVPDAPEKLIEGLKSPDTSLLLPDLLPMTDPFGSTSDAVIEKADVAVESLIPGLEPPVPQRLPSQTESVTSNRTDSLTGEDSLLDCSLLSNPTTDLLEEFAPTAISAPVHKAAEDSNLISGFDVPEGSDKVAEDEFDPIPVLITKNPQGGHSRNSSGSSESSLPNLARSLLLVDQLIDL

[19] = target: T12, DAPK1 (Homo sapiens, UniProt P53355); assay: KINOMEscan; type: binding; settings: 1 μM
T12 construct: purchased Eurofins DiscoverX Corporation

[20] = target: T13, MARK3 (Homo sapiens, UniProt P27448); assay: KINOMEscan; type: binding; settings: 1 μM
T13 construct: purchased Eurofins DiscoverX Corporation
T13 sequence (P27448 whole entry): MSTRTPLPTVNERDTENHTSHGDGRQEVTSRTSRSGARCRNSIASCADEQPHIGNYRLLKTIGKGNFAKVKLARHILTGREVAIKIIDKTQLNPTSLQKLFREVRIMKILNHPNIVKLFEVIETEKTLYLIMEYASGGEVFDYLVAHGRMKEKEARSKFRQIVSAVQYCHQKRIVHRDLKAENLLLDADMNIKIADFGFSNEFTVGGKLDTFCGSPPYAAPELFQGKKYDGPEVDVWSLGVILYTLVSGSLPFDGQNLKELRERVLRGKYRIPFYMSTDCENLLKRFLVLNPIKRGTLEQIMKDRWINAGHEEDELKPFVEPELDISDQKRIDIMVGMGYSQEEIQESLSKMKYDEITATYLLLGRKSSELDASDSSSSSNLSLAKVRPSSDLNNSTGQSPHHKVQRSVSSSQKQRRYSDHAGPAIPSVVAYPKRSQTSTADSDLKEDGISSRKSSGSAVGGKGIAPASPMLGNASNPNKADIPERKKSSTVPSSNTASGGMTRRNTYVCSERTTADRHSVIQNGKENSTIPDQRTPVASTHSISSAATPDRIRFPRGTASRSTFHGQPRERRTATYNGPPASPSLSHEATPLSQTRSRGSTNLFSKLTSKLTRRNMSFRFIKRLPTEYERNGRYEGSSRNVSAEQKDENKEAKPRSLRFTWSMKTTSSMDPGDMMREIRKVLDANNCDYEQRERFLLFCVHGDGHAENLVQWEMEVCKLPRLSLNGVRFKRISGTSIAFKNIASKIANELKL

[21] = target: T14, ABL1(T315I)-phosphorylated (Homo sapiens, UniProt P00519, T315I); assay: KINOMEscan; type: binding; settings: 1 μM
T14 construct: purchased Eurofins DiscoverX Corporation

[22] = target: EGFR(L861Q) (Homo sapiens, UniProt P00533, L861Q); assay: KINOMEscan; type: binding; settings: 1 μM

IC50 [1]: < 10 nM
Structure (SMILES): CSc1nc(-c2cccc(NC(=O)c3cccc4c3NC(=O)c3ccccc3N4)c2)c(-c2ccnc(NC(C)=O)c2)[nH]1 [Compound 2]

Structure (SMILES): C=CC(=O)Nc1ccc(OC)c(Nc2cc(-c3[nH]c(CC)nc3-c3cccc(NC(=O)c4cccc5c4NC(=O)c4ccccc4N5)c3)ccn2)c1 [Compound 4]
POC [2]: 100% of control | POC [3]: 43% of control | POC [4]: 100% of control | POC [5]: 81% of control | POC [6]: 100% of control | POC [7]: 13% of control | POC [8]: 98% of control | POC [9]: 100% of control | POC [10]: 100% of control | POC [11]: 69% of control | POC [12]: 91% of control | POC [13]: 79% of control | POC [14]: 95% of control | POC [15]: 100% of control | POC [16]: 66% of control | POC [17]: 88% of control | POC [18]: 100% of control | POC [19]: 86% of control | POC [20]: 100% of control | POC [21]: 100% of control | POC [22]: 2.7% of control
